From patent US5977133A, “Pyridone antibiotic with improved safety profile” (priority 1998, dated 1999)
Structures can show the parent of a compound that is named as a salt.

Legend:
Type in all cases: cell-based
[1] = test system: H. influenzae; assay: In vitro MIC, agar dilution; details: Haemophilus influenzae
[2] = test system: P. aeruginosa (CiproR); assay: In vitro MIC, agar dilution; details: Pseudomonas aeruginosa
[3] = test system: E. faecium (VanS); assay: In vitro MIC, agar dilution; details: Enterococcus faecium
[4] = test system: S. aureus (CiproS); assay: In vitro MIC, agar dilution; details: Staphylococcus aureus
[5] = test system: S. pyogenes; assay: In vitro MIC, agar dilution; details: Streptococcus pyogenes
[6] = test system: Providencia spp.; assay: In vitro MIC, agar dilution; details: Providencia
[7] = test system: C. perfringens; assay: microbe, parasite or virus in culture; details: Clostridium perfringens
[8] = test system: Enterobacter spp.; assay: In vitro MIC, agar dilution; details: Enterobacter
[9] = test system: C. difficile; assay: In vitro MIC, agar dilution; details: Clostridioides difficile
[10] = test system: Legionella spp.; assay: microbe, parasite or virus in culture; details: Legionella
[11] = test system: Shigella spp.; assay: microbe, parasite or virus in culture; details: read-out: MIC Range
[12] = test system: S. epidermidis (CiproS); assay: In vitro MIC, agar dilution; details: Staphylococcus epidermidis
[13] = test system: Enterococcus spp. (VanR); assay: In vitro MIC, agar dilution; details: Enterococcus
[14] = test system: M. avium; assay: In vitro MIC, agar dilution; details: Mycobacterium avium
[15] = test system: Salmonella spp.; assay: In vitro MIC, agar dilution; details: 23 isolates
Experimental: (§1) Each plate was inoculated with 1:100 (or 1:10 for slow-growing strains, primarily Micrococcus and Streptococcus) dilutions of up to 32 different microorganisms, using a Steers replicator block calibrated to deliver approximately 10^4 colony forming units (CFU's). The inoculated plates were incubated at from about 35° C. to about 37 ° C. for approximately 20-24 hours. In addition, a control plate using BHI agar containing no test compound was prepared and incubated at the beginning and at the end of each test. The quinolone antibacterial ciprofloxacin was used as a control ("Cntl").
(§2) The numbers below the microorganism species indicate the nunbers of isolates tested. […] The MIC is defined as the lowest concentration of test compound yielding no growth (a slight haze or sparsely isolated colonies at the inoculum spot) as compared to the growth control containing no test compound.

[16] = test system: E. coli; assay: In vitro MIC, agar dilution; details: Escherichia coli, 25 isolates
Experimental: as §1, §2

[17] = test system: P. aeruginosa (CiproS); assay: In vitro MIC, agar dilution; details: Pseudomonas aeruginosa
[18] = test system: E. faecium (CiproS); assay: In vitro MIC, agar dilution; details: Enterococcus faecium
[19] = test system: E. faecium (CiproR); assay: In vitro MIC, agar dilution; details: Enterococcus faecium, read-out: MIC Range
[20] = test system: S. pneumoniae (PenR); assay: In vitro MIC, agar dilution; details: Streptococcus pneumoniae
[21] = test system: S. pneumoniae (CiproR); assay: In vitro MIC, agar dilution; details: Streptococcus pneumoniae, read-out: MIC Range
[22] = test system: M. pneumoniae; assay: In vitro MIC, agar dilution; details: Mycoplasmoides pneumoniae, read-out: MIC Range
[23] = test system: M. catarrhalis; assay: In vitro MIC, agar dilution; details: Moraxella catarrhalis
[24] = test system: E. faecalis (VanS); assay: In vitro MIC, agar dilution; details: Enterococcus faecalis
[25] = test system: S. epidermidis (CiproR); assay: In vitro MIC, agar dilution; details: Staphylococcus epidermidis
[26] = test system: C. freundii; assay: In vitro MIC, agar dilution; details: Citrobacter freundii
[27] = test system: S. aureus (CiproR); assay: In vitro MIC, agar dilution; details: Staphylococcus aureus
[28] = test system: S. pneumoniae (PenS); assay: In vitro MIC, agar dilution; details: Streptococcus pneumoniae
[29] = test system: Klebsiella spp.; assay: In vitro MIC, agar dilution; details: Klebsiella
[30] = test system: B. fragilis; assay: In vitro MIC, agar dilution; details: Bacteroides fragilis
[31] = test system: P. mirabilis; assay: In vitro MIC, agar dilution; details: Proteus mirabilis
[32] = test system: N. gonorrhoeae; assay: In vitro MIC, agar dilution; details: Neisseria gonorrhoeae
[33] = test system: H. pylori; assay: In vitro MIC, agar dilution; details: Helicobacter pylori

Cc1c(N2C[C@@H]3CCCN[C@@H]3C2)c(F)cn2c(=O)c(C(=O)O)cc(C3CC3)c12 [Example 4, 1-cyclopropyl-8-(S,S-2,8-diaza-8-bicyclo[4.3.0]nonyl)-7-fluoro-4H-9-methyl-4-oxo-quinolizine-3-carboxylic acid hydrochloride]
MIC50 [1]: 0.015 µg/mL | MIC90 [1]: 0.015 µg/mL | MIC ([1]; read-out: MIC Range): 4 to 15 ng/mL | MIC50 [2]: 8 µg/mL | MIC90 [2]: 16 µg/mL | MIC ([2]; read-out: MIC Range): 4 to 64 µg/mL | MIC50 [3]: 0.5 µg/mL | MIC90 [3]: 1 µg/mL | MIC ([3]; read-out: MIC Range): 0.12 to 1 µg/mL | MIC50 [4]: 2 ng/mL | MIC90 [4]: 2 ng/mL | MIC ([4]; read-out: MIC Range): 0.5 to 2 ng/mL | MIC50 [5]: 0.06 µg/mL | MIC90 [5]: 0.06 µg/mL | MIC ([5]; read-out: MIC Range): 0.03 to 0.06 µg/mL | MIC50 [6]: 0.03 µg/mL | MIC90 [6]: 0.12 µg/mL | MIC ([6]; read-out: MIC Range): 0.008 to 0.25 µg/mL | MIC50 [7]: 0.5 µg/mL | MIC90 [7]: 1 µg/mL | MIC ([7]; read-out: MIC Range): 0.25 to 1 µg/mL | MIC50 [8]: 0.03 µg/mL | MIC90 [8]: 0.12 µg/mL | MIC ([8]; read-out: MIC Range): 0.015 to 0.12 µg/mL | MIC50 [9]: 0.25 µg/mL | MIC90 [9]: 0.25 µg/mL | MIC ([9]; read-out: MIC Range): 0.03 to 0.25 µg/mL | MIC50 [10]: 0.25 µg/mL | MIC90 [10]: 0.25 µg/mL | MIC ([10]; read-out: MIC Range): 0.25 to 0.5 µg/mL | MIC [11]: 4 to 15 ng/mL | MIC50 [12]: 0.03 µg/mL | MIC90 [12]: 0.03 µg/mL | MIC ([12]; read-out: MIC Range): 0.015 to 0.03 µg/mL | MIC50 [13]: 1 µg/mL | MIC90 [13]: 1 µg/mL | MIC ([13]; read-out: MIC Range): 0.06 to 4 µg/mL | MIC50 [14]: 0.25 µg/mL | MIC90 [14]: 1 µg/mL | MIC ([14]; read-out: MIC Range): 0.25 to 4 µg/mL | MIC [15]: 0.004 to 0.12 µg/mL | MIC50 ([15]; read-out: MIC50): 0.03 µg/mL | MIC90 ([15]; read-out: MIC90): 0.06 µg/mL | MIC [16]: ≤ 8 ng/mL | MIC50 ([16]; read-out: MIC50): ≤ 8 ng/mL | MIC90 ([16]; read-out: MIC90): ≤ 8 ng/mL | MIC50 [17]: 0.12 µg/mL | MIC90 [17]: 1 µg/mL | MIC ([17]; read-out: MIC Range): 0.03 to 2 µg/mL | MIC50 [18]: 0.5 µg/mL | MIC90 [18]: 1 µg/mL | MIC ([18]; read-out: MIC Range): 0.25 to 1 µg/mL | MIC [19]: 0.5 to 4 µg/mL | MIC50 [20]: 0.03 µg/mL | MIC90 [20]: 0.03 µg/mL | MIC ([20]; read-out: MIC Range): 0.008 to 0.03 µg/mL | MIC [21]: 0.12 to 0.25 µg/mL | MIC [22]: 0.015 to 0.03 µg/mL | MIC50 [23]: 0.015 µg/mL | MIC90 [23]: 0.03 µg/mL | MIC ([23]; read-out: MIC Range): 0.015 to 0.03 µg/mL | MIC50 [24]: 0.12 µg/mL | MIC90 [24]: 0.25 µg/mL | MIC ([24]; read-out: MIC Range): 0.12 to 0.25 µg/mL | MIC50 [25]: 0.25 µg/mL | MIC90 [25]: 0.5 µg/mL | MIC ([25]; read-out: MIC Range): 0.12 to 4 µg/mL | MIC50 [26]: 0.03 µg/mL | MIC90 [26]: 0.25 µg/mL | MIC ([26]; read-out: MIC Range): 0.015 to 0.25 µg/mL | MIC50 [27]: 0.06 µg/mL | MIC90 [27]: 0.25 µg/mL | MIC ([27]; read-out: MIC Range): 0.008 to 0.5 µg/mL | MIC50 [28]: 0.06 µg/mL | MIC90 [28]: 0.12 µg/mL | MIC ([28]; read-out: MIC Range): 0.06 to 0.12 µg/mL | MIC50 [29]: 0.06 µg/mL | MIC90 [29]: 0.06 µg/mL | MIC ([29]; read-out: MIC Range): 0.008 to 0.25 µg/mL | MIC50 [30]: 0.25 µg/mL | MIC90 [30]: 0.25 µg/mL | MIC ([30]; read-out: MIC Range): 0.12 to 0.5 µg/mL | MIC50 [31]: 0.06 µg/mL | MIC90 [31]: 0.12 µg/mL | MIC ([31]; read-out: MIC Range): 0.03 to 0.12 µg/mL | MIC50 [32]: 2 ng/mL | MIC90 [32]: 0.015 µg/mL | MIC ([32]; read-out: MIC Range): 2 to 15 ng/mL | MIC50 [33]: 0.12 µg/mL | MIC90 [33]: 0.25 µg/mL | MIC ([33]; read-out: MIC Range): 0.06 to 0.25 µg/mL
